What was measured:
[1] = system: ligature-induced periodontal bone loss; test: Ligature-induced periodontitis model, periodontal bone loss; format: in vivo, mice; conditions: for inhibition of induction of bone loss relative to no-treatment: 1 μg microinjected in gingiva daily (FIG. 26a)
Protocol: FIG. 26. Inhibition of bone loss by Del-1 and other treatments that block LFA-1 or IL-17. Ligature-induced periodontal bone loss was assessed in mice treated as follows: (a) 18-month-old (left) and 10-week-old mice (right) were microinjected in the gingiva with Del-1-Fc or Fc control (1 μg) or with anti-IL-17A mAb or isotype control (1 or 10 μg). (b) WT and Itgal^−/− mice received Del-1-Fc or Fc control as above. (c) LFA878 was locally administered at an equal molar concentration with Del-1-Fc (corresponding to 8.4 ng and 1 μg, respectively) or at the indicated higher doses. (d) Anti-LFA-1 or IgG2a control were microinjected at either 1 μg, as was Del-1-Fc, or at 10 μg. (e) Del-1-Fc, anti-LFA-1, anti-ICAM-1, ICAM-1-Fc and their controls were i.v. administered at 50 μg. Data are means±SD (n=5-6 mice per group) from one of two (a,c,e) or three (b,d) independent and representative experiments. Data represent % inhibition of bone loss, which was calculated using the formula: ([Bone loss in the absence of inhibitor−Bone loss in the presence of inhibitor]/Bone loss in the absence of inhibitor)×100. *P<0.05; **P<0.01. NS, not significant.
The ligature-induced periodontitis model was used to determine the efficacy of potential therapeutic interventions (see below). Specifically, bone loss was induced by tying a 5-0 silk ligature around the maxillary left second molar, placing the ligature in the gingival sulcus; this treatment induces bone loss in conventional (but not germ-free) mice due to massive bacterial accumulation in the ligated teeth (Graves (2008)). The contralateral molar tooth in each mouse was left unligated (baseline control). Bone loss was examined 5 days after placement of the ligatures, which remained in place in all mice during the experimental period. Using the VIA-170K system, bone measurements were performed on the ligated second molar (3 sites corresponding to mesial cusp, palatal groove, and distal cusp) and the affected adjacent regions (sites corresponding to distal cusp and distal groove of the first molar, and palatal cusp of the third molar). To calculate bone loss, the 6-site total CEJ-ABC distance for the ligated side of each mouse was subtracted from the 6-site total CEJ-ABC distance of the contralateral unligated side of the same mouse.
To determine its protective efficacy in ligature-induced periodontitis, Del-1 was used in the form of a fusion protein with the Fc region of human IgG1 (Del-1-Fc) (GenScript). Del-1-Fc (1 μg) was microinjected into the palatal gingiva of the ligated second maxillary molar, one day before placement of the ligature and every day thereafter until the day before sacrifice on day 5. In other experiments, Del-1-Fc was administered systemically by i.v. injection (50 μg), following the same timing schedule as above. The same protocols were used to determine the effect of local (or systemic) administration of mAbs to LFA-1 (clone M17/4, rat IgG2a; BioLegend), ICAM-1 (clone YN1, IgG2b; Biolegend), IL-17A (clone M210, rat IgG2a; Amgen), or IL-17F (clone 316016, rat IgG2a; R&D Systems). Recombinant mouse ICAM-1 fused to the Fc region of human IgG1 (ICAM-1-Fc) as well as an LFA-1 antagonist (LFA878; kindly provided by Novartis) (Weitz-Schmidt (2004)) were also used in bone loss inhibition experiments. Purified azide-free rat IgG2a or IgG2b (BioLegend) and recombinant human IgG1 Fc (R&D Systems) were used as controls for the mAbs and Del-1-Fc, respectively.

[2] = system: P. gingivalis (Pg)-induced bone loss; test: P. gingivalis-induced periodontal bone loss mouse model; format: in vivo, mice; conditions: local gingival injections (FIG. 2C)
[3] = system: Del-1 expression in human endothelial cells; test: Del-1 mRNA expression in HUVEC stimulated with human IL-17A; format: cell-based
Text: FIG. 21. IL-17 downregulates Del-1 expression. (a) Gingival Del-1 mRNA expression in wild-type (WT) and IL17ra^−/− mice determined by qPCR. (b) Sagittal sections of interdental gingiva of WT and Il17ra^−/− mice were stained for Del-1; shown are representative fluorescent confocal images (upper row) and their overlays with corresponding DIC images (lower row). Bar, 50 μm; T, tooth; G, gingiva; S, sulcus. (c) The fluorescence intensities of these and additional representative images from independent mice (5 per group) were quantified using ImageJ analysis. (d) Anti-IL-17A mAb and IgG2a control were microinjected into the gingiva and Del-1 mRNA expression was determined by qPCR. (e) Gingival IL-17A mRNA expression was determined in young (8-10 weeks) and old (18 months) mice using qPCR. (f) Linear-regression analysis of Del-1 versus IL-17A expression in old mice. (g) Determination of Del-1 mRNA expression and MPO amounts in the gingiva of indicated BM chimeric mice (donor BM→lethally irradiated recipient). (h) HUVEC were stimulated with or without human IL-17A and Del-1 mRNA expression was quantified by qPCR (pooled data from four independent experiments). […]
Total RNA was extracted from excised gingival tissue or cultured cells using the PerfectPure RNA cell kit (5 Prime, Fisher) and quantified by spectrometry at 260 and 280 nm. […]

[4] = system: human neutrophils; test: Transmigration assay of human neutrophils through HUVEC monolayer; format: cell-based; conditions: 5 μg/ml, towards IL-8 (20 ng/ml)
Protocol: FIG. 14. LFA-1 dependence of Del-1 deficiency-associated inflammation and bone loss. (a) Twenty-week-old C57BL/6 wild-type (WT) mice or mice deficient in the indicated molecules were assessed for bone loss relative to 5-week-old WT mice (zero baseline); the dotted line indicates the bone heights of 20-week-old WT mice for ease of comparison. (b) Sagittal sections of interdental gingiva from the same mice were stained for Ly6G; shown are representative overlays of DIC and fluorescent confocal images. (c) The fluorescence intensities of these and additional representative images from independent mice (5 per group) were quantified using ImageJ analysis. (d) Dissected gingiva from the indicated mice were processed for ELISA determination of MPO protein (left) or qPCR determination of PGRP1 transcript abundance (right). (e) Transmigration of human neutrophils through an endothelial cell monolayer (HUVEC) towards IL-8 (20 ng/ml) in the bottom well was determined with or without soluble human Del-1 (5 μg/ml), BSA (5 μg/ml), anti-LFA-1 mAb (10 μg/ml) or IgG1 control (10 μg/ml). […]
Transmigration assays were performed as previously described (Ley (2007)), using 6.5-mm Transwells with an 8-μm pore size (Corning). […] After 60 min incubation at 37° C., the number of transmigrated cells in the lower compartment was measured (Ley (2007)). […]

Molecule: CC[C@H](C)C(=O)O[C@H]1C[C@@H](C)C=C2C=C[C@H](C)[C@H](CC[C@@H]3C[C@H](CC(=O)NC)N(Cc4ccc(O)c(OC)c4)C(=O)O3)[C@H]21 [LFA878, reference compound]
- protection against bone loss compared with Del-1-Fc ([1]; local, equal molar amounts (8.4 ng vs 1 μg Del-1-Fc) (FIG. 26c)): less protective than Del-1-Fc
- protection against bone loss compared with Del-1-Fc ([1]; locally administered at 1 μg (FIG. 26c)): almost (but not quite) comparable to Del-1-Fc

Molecule: O=C(NCc1cccc(O)c1)c1cc(Cl)c(C(=O)N[C@@H](CNC(=O)c2cc(O)cc(O)c2)C(=O)O)c(Cl)c1 [XVA143]
- P. gingivalis (Pg)-induced bone loss [2]: inhibited

Molecule: Del-1-Fc: Del-1 as a fusion protein with the Fc region of human IgG1 (GenScript); SEQ ID NO: 5
- inhibition of induction of bone loss relative to no-treatment ([1]; 10-week-old mice): ≈ 80%
- inhibition of bone loss ([1]; 18-month old mice, microinjected in palatal gingiva daily from day -1 to day 4 (FIG. 7)): significant inhibition of bone loss
- inhibition of induction of bone loss relative to no-treatment ([1]; 18-month-old mice): inhibited
- effect against bone loss ([1]; Itgal−/− mice (LFA-1 deficient), local (FIG. 26b)): minor, but not statistically significant, effect
- potency in inhibiting periodontal bone loss versus other LFA-1-ICAM-1 inhibitors ([1]; given locally or systemically): more potent

Molecule: human IL-17A: human IL-17A cytokine used to stimulate HUVEC
- Del-1 expression in human endothelial cells (HUVEC) [3]: inhibited

B1: human Del-1: soluble human Del-1 from R&D Systems; human Del-1 amino acid sequence SEQ ID NO: 1 (protein, listed as Homo sapiens)
chain: MKRSVAVWLLVGLSLSVPQFGKGDICDPNPCENGGICLPGLADGSFSCECPDGFTDPNCSSVVEVASDEEEPTSAGPCTPNPCHNGGTCEISEAYRGDTFIGYVCKCPRGFNGIHCQHNINECEVEPCKNGGICTDLVANYSCECPGEFMGRNCQYKCSGPLGIEGGIISNQQITASSTHRALFGLQKWYPYYARLNKKGLINAWTAAENDRWPWIQINLQRKMRVTGVITQGAKRIGSPEYIKSYKIAYSNDGKTWAMYKVKGTNEDMVFRGNIDNNTPYANSFTPPIKAQYVRLYPQVCRRHCTLRMELLGCELSGCSEPLGMKSGHIQDYQITASSIFRTLNMDMFTWEPRKARLDKQGKVNAWTSGHNDQSQWLQVDLLVPTKVTGIITQGAKDFGHVQFVGSYKLAYSNDGEHWTVYQDEKQRKDKVFQGNFDNDTHRKNVIDPPIYARHIRILPWSWYGRITLRSELLGCTEEE
- LFA-1-dependent transendothelial migration of human neutrophils [4]: inhibited
